Source: patent US20240293551A1, “USE OF ST-TYPE LIPID COMPOUNDS IN PREPARATION OF NUCLEIC ACID DELIVERY REAGENT AND RELATED PRODUCT” (INSTITUTE OF BASIC MEDICAL SCIENCES CHINESE ACADEMY OF …, priority 2021, published 2024)

System: PGY-sRNA-26
Test: In vivo delivery study of lipid-nucleic acid mixture (oral gavage, RT-qPCR of PGY-sRNA-26 in tissues)
Design: species or system mouse
Conditions: for delivery efficacy over each tissue and blood tested (broad-spectrum delivery): all tissues and blood tested; for oral delivery of single-stranded sRNA nucleic acids into mouse intestinal tissue: intestine
Procedure: 10 nmol of small RNA (as shown in Table 2) was dissolved in 400 μl of DEPC-treated water in a glass tube, 10 μl of the corresponding lipid stock solution was added such that the lipid mass in the system was 100 μg. The mixture was mixed thoroughly, heated in a 90° C. water bath for 15 minutes, and then cooled naturally to obtain the lipid nucleic acid mixture of lipid and small RNA.
C57BL/6 male mice, approximately 6 weeks old, weighing 20-24 g, were obtained from Beijing Vital River Laboratory Animal Technology Co., Ltd. The mice were housed in the SPF-grade animal facility at the Animal Center of the Institute of Basic Medical Sciences, Chinese Academy of Medical Sciences. The mice were fasted for 12 hours before gavage administration.
The resultant lipid nucleic acid mixture was orally administered to each mouse at a dose of 100 μg lipid: 10 nmol single-stranded 3′-methylated small RNA PGY-sRNA-26.
• 1) Blank group (n=4): mice were administered with 500 μl saline by gavage, this group served as a blank control; • 2) Free uptake group (n=4): mice were directly administered with small RNA PGY-sRNA-26 solution (10 nmol/mouse, 500 μl) by gavage, this group served as a negative control; • 3) Lipid-treated group (n=4): mice were administered with 500 μl lipid nucleic acid mixture prepared in step 2 by gavage.
After 12 hours of gavage administration, 500 μl blood from the eyeball of each mouse was sampled, added to 1.5 ml Trizol Reagent LS (purchased from Invitrogen), thoroughly mixed for lysis. 3 ml of Trizol Reagent LSwas added to tissue samples and homogenized for complete lysis, wherein the sampled tissues include heart, liver, spleen, lung, kidney, stomach, intestine, brain, blood, femur. RNA was extracted from 1 ml of the blood or the tissue lysate following the steps below: • Centrifuge at 4° C., 12,000 rpm for 5 min, discard the precipitate, transfer Trizol to a new centrifuge tube; • Add chloroform at 200 μL chloroform/mL Trizol, shake well, stand at room temperature for 5 min; • Centrifuge at 4° C., 12,000 rpm for 15 min; • Take the upper aqueous phase to another centrifuge tube, add isopropanol at 0.4 mL isopropanol/mL Trizol, mix well, and stand at low temperature for 10-20 min; • Centrifuge at 4° C., 12,000 rpm for 15 min, discard the supernatant, RNA precipitated at the bottom of the tube; • Add 1 mL of 75% ethanol, gently shake the centrifuge tube, suspend the precipitate; • Centrifuge at 4° C., 12,000 rpm for 15 min, discard the supernatant, add 1 mL of 75% ethanol, gently shake the centrifuge tube, suspend the precipitate; • Centrifuge at 4° C., 12,000 rpm for 15 min, discard the supernatant, air-dry at room temperature, dissolve RNA samples in 50 μL RNase-free H2O, measure OD value to quantify RNA concentration. 3.3 Reverse Transcription of sRNA to cDNA:
The reverse transcription system is as follows: Template RNA (200 ng/μL) 10 μL, 10×RT Buffer 2.0 μL, 25×dNTP Mix (100 mM) 0.8 μL, U6 RT stem-loop primer (10 μM) 2.0 μL, PGY-sRNA-26 RT stem-loop primer (10 μM) 2.0 μL, MultiScribe™ Reverse Transcriptase (50 U/μL) 1.0 μL, RNAse Inhibitor (40 U/μL) 1.0 μL, nuclease-free H2O 1.2 μL. After transient centrifugation, the reverse transcription system was placed in a PCR machine with the following reaction conditions: (1) 25° C., 10 min; (2) 37° C., 120 min; (3) 85° C., 5 min; (4) 4° C., stop reaction. After the reaction, add 20 μL RNAse-free ddH2O, adjust the final volume to 40 μL. The stem-loop primers used in this reverse transcription process were synthesized by Beijing Tianyi Huiyuan Biotechnology Co., Ltd. (U6 was used as a standard reference gene to calculate its relative expression, because U6 RT primer was used as a reference gene in relative quantification of RT-qPCR reactions for small RNA): […]

[1] = C57BL/6 mice, gavage, 100 μg lipid: 10 nmol PGY-sRNA-26, 12 hours
[2] = C57BL/6 mice, gavage, 100 μg lipid: 10 nmol PGY-sRNA-26, 12 hours, brain

Compound | delivery efficacy over each tissue and blood tested (broad-spectrum delivery) [1] | oral delivery of single-stranded sRNA nucleic acids into mouse blood [1] | oral delivery of single-stranded sRNA nucleic acids into mouse brain tissue [2] | oral delivery of single-stranded sRNA nucleic acids into mouse femur [1] | oral delivery of single-stranded sRNA nucleic acids into mouse heart tissue [1] | oral delivery of single-stranded sRNA nucleic acids into mouse intestinal tissue [1] | oral delivery of single-stranded sRNA nucleic acids into mouse kidney tissue [1] | oral delivery of single-stranded sRNA nucleic acids into mouse liver tissue [1] | oral delivery of single-stranded sRNA nucleic acids into mouse lung tissue [1] | oral delivery of single-stranded sRNA nucleic acids into mouse spleen tissue [1] | oral delivery of single-stranded sRNA nucleic acids into mouse stomach tissue [1] | oral delivery of single-stranded sRNA nucleic acids into mouse brain tissue (mouse, in vivo, po)
CC(C)CC[C@@H](O)[C@](C)(O)[C@H]1CC[C@@]2(O)C3=CC(=O)[C@@H]4C[C@@H](O)[C@@H](O)C[C@]4(C)[C@H]3CC[C@]12C [Lipid 538] | exhibited the best delivery efficacy | can effectively orally deliver | can effectively orally deliver | can effectively orally deliver | can effectively orally deliver | can effectively orally deliver | can effectively orally deliver | can effectively orally deliver | can effectively orally deliver | can effectively orally deliver | can effectively orally deliver | –
C[C@H](CCC(=O)NCC(=O)O)[C@H]1CC[C@H]2[C@@H]3CC[C@@H]4C[C@H](O)CC[C@]4(C)[C@H]3C[C@H](O)[C@]12C [Lipid 552] | exhibited the best delivery efficacy | can effectively orally deliver | can effectively orally deliver | can effectively orally deliver | can effectively orally deliver | can effectively orally deliver | can effectively orally deliver | can effectively orally deliver | can effectively orally deliver | can effectively orally deliver | can effectively orally deliver | –
C=C1/C(=C\C=C2/CCC[C@]3(C)[C@@H]([C@H](C)OCCC(C)(C)O)CC[C@@H]23)C[C@@H](O)C[C@@H]1O [Lipid 540] | exhibited the best delivery efficacy | can effectively orally deliver | can effectively orally deliver | can effectively orally deliver | can effectively orally deliver | can effectively orally deliver | can effectively orally deliver | can effectively orally deliver | can effectively orally deliver | can effectively orally deliver | can effectively orally deliver | –
CC(=O)[C@@]1(O)CC[C@H]2[C@@H]3C[C@H](C)C4=CC(=O)CC[C@]4(C)[C@H]3CC[C@@]21C [Lipid 557] | exhibited the best delivery efficacy | can effectively orally deliver | – | can effectively orally deliver | can effectively orally deliver | can effectively orally deliver | can effectively orally deliver | can effectively orally deliver | can effectively orally deliver | can effectively orally deliver | can effectively orally deliver | can effectively orally deliver
C[C@]12CCC(=O)C=C1CC[C@@H]1[C@@H]2CC[C@]2(C)C(=O)CC[C@@H]12 [Lipid 587] | – | can effectively orally deliver | can effectively orally deliver | – | can effectively orally deliver | – | can effectively orally deliver | – | – | can effectively orally deliver | can effectively orally deliver | –
C[C@H](CCC(=O)O)[C@H]1CC[C@H]2[C@@H]3CC[C@@H]4C[C@H](O)CC[C@]4(C)[C@H]3C[C@H](O)[C@]12C [Lipid 581] | exhibited the best delivery efficacy | can effectively orally deliver | can effectively orally deliver | can effectively orally deliver | can effectively orally deliver | can effectively orally deliver | can effectively orally deliver | can effectively orally deliver | can effectively orally deliver | can effectively orally deliver | can effectively orally deliver | –
